Measured values from US9957253B2, “Triaminopyrimidine compounds useful for preventing or treating malaria” (MMV MEDICINES FOR MALARIA VENTURE, priority 2014, dated 2018).
pIC50: −log10 of the molar value. Structures can show the parent of a compound that is named as a salt. Where two headings read alike, the source gives them in different places.

Key:
[1] = target: human CYP 2C9 (Homo sapiens, UniProt P11712); assay: CYP inhibition assay, CYP 2C9; assay type: in vitro ADME
Method: (§1) This study was conducted using specific substrates for 5 major human CYP isozymes. These substrates were used as a cocktail (phenacetin, diclofenac, S-mephenytoin, bufuralol and midazolam which are predominantly metabolised by CYP 1A2, 2C9, 2C19, 2D6 and 3A4/5, respectively) at concentrations equivalent to their respective Km values. LC-MS-MS (MRM mode) was used to follow the formation of the CYP specific metabolites. A decrease in the formation of the metabolites in peak area to vehicle control was used to calculate the IC50 value. […] Test compound was used at 6 different concentrations ([…]) to estimate IC50.
(§2) The incubation was carried out in 96 deep well plates. Mixture of 180 μL of 20 mg/mL HLM and 90 μL of substrate cocktail solution was added to 15840 μL of phosphate buffer and 179 μL of this mixture was mixed with 1 μL of the test compound, inhibitor cocktail solution or vehicle in each well. The final concentration of DMSO:ACN in the assay mix was 0.3:0.7% v/v. The incubation plate was placed into the water bath and pre-warmed at 37° C. for 5 min before the reactions were started by the addition of 20 μL of 10 mmol/L NADPH solution in phosphate buffer. After the addition of NADPH, the incubation plate was incubated at 37° C. for a further 5 min. The reaction was quenched by the addition of 1 volume (200 μL) of cold ACN containing 3% formic acid and 40 nmol/L verapamil. The plates were kept on ice for 20 min and then centrifuged at 4000 rpm for 30 min to precipitate protein. The supernatant 180 μL was transferred to the analysis plate for LC/MS/MS analysis.

[2] = target: T1, human CYP 2D6 (Homo sapiens, UniProt P10635); assay: Time dependent CYP inhibition assay, CYP 2D6; assay type: in vitro ADME
T1 construct: Mixture of 180 μL of 20 mg/mL HLM and 90 μL of substrate cocktail solution; from tissue; host or cells: human liver microsomes (HLM)

[3] = Caco-2 permeability assay; assay type: in vitro ADME; settings: human; Caco-2, 10 μM, pH 6.5/7.4
Method: Caco-2 Permeability Assay
Permeability in a Caco-2 monolayer was determined at 10 μM. The Caco-2 cell monolayers were washed once with HBSS. TEER was measured both before and after performing all the transport experiments. Papp was measured in apical A to basolateral B direction. Transport buffer, 800 μL (HBSS, pH 7.4) was first dispensed to the basal side of the monolayer. The assay was then initiated by adding 200 μL of compound solution to the apical side (all test compounds were diluted in HBSS, pH 6.5, with 1% DMSO as co-solvent). Two μL and 200 μL of samples were withdrawn, before and at 45 and 120 min post addition of test compound, from the apical donor compartment and the basolateral receiver compartment, respectively. The transwell plates were incubated at 37° C. on a shaker at 480 rpm inside the incubator. All samples were immediately analysed by LC-MS/MS. A passive permeability was determined by complete chemical inhibition of the three major efflux transporters, ABCB1 (P-gp), ABCG2 (BCRP) and ABCC2 (MRP2), in Caco-2 cells using a cocktail of chemical inhibitors: quinidine (P-gp), sulfasalazine (BCRP) and benzbromarone (MRP2).
The apparent permeability coefficient (Papp) was calculated according to the following equation: Papp=(ΔQ/Δt)/(A×CD)[cm/s] (1) where (ΔQ/Δt) […] is the cumulative amount of test compound transported over time to the basolateral (receiver) side, A is the surface area of the monolayer membrane (cm^2) and CD is the average drug concentration in the donor chamber over the period for which (ΔQ/Δt) was determined.

[4] = target: CYP3A4 (Homo sapiens, UniProt P08684); assay: CYP inhibition assay, CYP 3A4; assay type: in vitro ADME; settings: probe midazolam; human liver microsomes, substrate cocktail
Method: as §1, §2

[5] = system: hepatocytes; assay: Metabolic stability assay (hepatocyte Clint), rat; assay type: in vitro ADME; settings: 1 μM compound
Method: Metabolic Stability Assay (Rat/Human Hepatocyte Clint)
Viability of cryopreserved hepatocytes was determined using trypan blue and the cell concentration was adjusted to 10^6 cells per mL with Leibovitz L-15 Buffer. 1 μM compound (in Acetonitrile; 0.01% DMSO) was incubated with 500 μL of hepatocytes (1 million cells per mL) in a NUNC plate. Reaction was stopped at different time points (0, 5, 15, 30, 60, 90 and 120 min) by addition of 3 volumes of chilled acetonitrile to 100 μL of reaction mixture and centrifuged at 4° C. for 15 min. Supernatants were analyzed using LC-MS/MS for substrate depletion.

[6] = Plasma protein binding assay (equilibrium dialysis), dog; assay type: in vitro ADME
Method: Plasma Protein Binding Assay
Protein binding is measured using the equilibrium dialysis technique. Compound is added to 10% plasma giving a concentration of 20 μM and dialysed with isotonic buffer for 18 hours at 37° C. The plasma and buffer solutions are analysed using generic LCUVMS and the first apparent binding constant for the compound derived. The binding constant is then used to determine the % free in 100% plasma.

[7] = system: hepatocytes; assay: Metabolic stability assay (hepatocyte Clint), dog; assay type: in vitro ADME; settings: 1 μM compound
[8] = Blood:Plasma (BP) ratio, dog; assay type: in vitro ADME; settings: 10 μM, 37° C., 30 min
Method: Determination of Blood:Plasma (BP) Ratio
The incubation plate and the dog blood/plasma was preheated at 37° C. for 10 minutes. 2 μL of working solution of each compound was added to 398 μL of dog reference plasma or blood to achieve a final concentration of 10 μM. Plates were incubated at 37° C. with shaking for 30 min. After incubation, the blood samples are spun for 10 min. at 4,000 rpm (37° C.) and the plasma samples were stored at 37° C. Aliquots (100 μL) of plasma separated from centrifuged whole blood samples and reference plasma samples were transferred into 96-well plates. 400 μL of cold acetonitrile was added to precipitate protein and release compound. After vortexing for 10 min., plates were centrifuged for 30 min. at 4,000 rpm. 250 μL of the supernatant was transferred to new 96-well plates and centrifuged again at 4,000 rpm for 30 min. 100 μL of the supernatant was used for analysis by LC-MS/MS.

[9] = Prediction of hepatic blood clearance (well stirred model), dog
[10] = human liver microsomes, substrate cocktail, read-out: IC50 CYP 2C9

Chain of CYP3A4 (P08684 2-503): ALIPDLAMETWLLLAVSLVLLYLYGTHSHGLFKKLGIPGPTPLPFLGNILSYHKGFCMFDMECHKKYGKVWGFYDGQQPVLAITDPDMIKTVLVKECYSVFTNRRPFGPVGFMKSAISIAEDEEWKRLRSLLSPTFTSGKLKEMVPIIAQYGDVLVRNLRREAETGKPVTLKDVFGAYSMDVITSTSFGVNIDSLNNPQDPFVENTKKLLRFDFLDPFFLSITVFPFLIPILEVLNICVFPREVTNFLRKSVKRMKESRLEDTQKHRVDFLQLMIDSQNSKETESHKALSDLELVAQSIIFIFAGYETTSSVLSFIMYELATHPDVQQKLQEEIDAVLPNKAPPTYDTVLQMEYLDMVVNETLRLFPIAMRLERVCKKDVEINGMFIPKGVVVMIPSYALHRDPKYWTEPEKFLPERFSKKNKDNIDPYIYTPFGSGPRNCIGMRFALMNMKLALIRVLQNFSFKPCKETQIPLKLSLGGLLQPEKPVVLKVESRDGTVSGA
T1 sequence (P10635 whole entry): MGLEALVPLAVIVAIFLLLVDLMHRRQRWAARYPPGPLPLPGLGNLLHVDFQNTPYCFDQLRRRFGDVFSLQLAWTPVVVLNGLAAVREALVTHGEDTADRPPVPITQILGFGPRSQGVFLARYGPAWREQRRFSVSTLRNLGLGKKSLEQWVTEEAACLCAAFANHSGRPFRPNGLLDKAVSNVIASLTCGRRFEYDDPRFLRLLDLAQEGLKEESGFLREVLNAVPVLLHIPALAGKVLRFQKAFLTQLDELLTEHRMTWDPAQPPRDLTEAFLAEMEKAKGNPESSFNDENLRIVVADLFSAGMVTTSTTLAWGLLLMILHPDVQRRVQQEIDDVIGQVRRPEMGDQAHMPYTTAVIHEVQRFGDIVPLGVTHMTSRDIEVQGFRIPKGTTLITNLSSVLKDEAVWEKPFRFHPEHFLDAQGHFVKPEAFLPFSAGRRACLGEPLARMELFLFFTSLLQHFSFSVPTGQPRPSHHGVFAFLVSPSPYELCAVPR
Chain of human CYP 2C9 (P11712 whole entry): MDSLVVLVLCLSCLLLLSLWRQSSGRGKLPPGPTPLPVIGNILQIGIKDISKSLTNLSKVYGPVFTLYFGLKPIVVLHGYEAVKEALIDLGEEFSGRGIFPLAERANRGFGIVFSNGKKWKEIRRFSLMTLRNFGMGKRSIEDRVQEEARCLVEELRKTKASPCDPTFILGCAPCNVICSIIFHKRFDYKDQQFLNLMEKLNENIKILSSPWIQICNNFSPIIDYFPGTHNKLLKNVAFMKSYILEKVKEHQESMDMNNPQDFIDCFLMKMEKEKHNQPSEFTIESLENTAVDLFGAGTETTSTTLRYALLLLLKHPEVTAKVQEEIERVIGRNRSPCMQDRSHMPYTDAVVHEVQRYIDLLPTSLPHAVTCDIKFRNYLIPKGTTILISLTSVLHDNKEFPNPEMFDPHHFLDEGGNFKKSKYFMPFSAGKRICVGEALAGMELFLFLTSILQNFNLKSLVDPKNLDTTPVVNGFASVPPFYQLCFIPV

Row | SMILES | pIC50 [1] | pIC50 [2] | Papp A→B at 120 min, 10 μM [3] [×10⁻⁶ cm/s] | IC50 at 5 min [4] [µM] | Hep. Clint [5] [μl/min/1E6] | pIC50 [1, 10] | Fup [6] | Hep. Clint [7] [μl/min/1E6] | BP ratio [8] | Predicted CLh blood [9] [mL/min/kg]
1 | CCc1cc(Nc2ncc(N3CCN[C@H](C)C3)c(Nc3cc(C)n(C)n3)n2)nc(C)c1F [Example 7, (R)—N4-(1,5-dimethyl-1H-pyrazol-3-yl)-N2-(4-ethyl-5-fluoro-6-methylpyridin-2-yl)-5-(3-methylpiperazin-1-yl)pyrimidine-2,4-diamine dihydrochloride] | < 4.52 | < 4.25 | 5 | > 30 | 5.6 |  |  |  |  | 
2 | Cc1nc(Nc2ncc(N3CCN[C@H](C)C3)c(Nc3cnn(C)n3)n2)cc(C2CC2)c1Cl [Example 10, (R)—N2-(5-chloro-4-cyclopropyl-6-methylpyridin-2-yl)-N4-(2-methyl-2H-1,2,3-triazol-4-yl)-5-(3-methylpiperazin-1-yl)pyrimidine-2,4-diamine dihydochloride] |  | < 4.25 | 3.8 | > 30 | 8.3 | < 4.52 | 0.04 | 5.1 | 1.7 | 12.70
3 | Cc1nc(Nc2ncc(N3CCN(C)[C@H](C)C3)c(Nc3cc(C)n(C)n3)n2)cc(C2CC2)c1F [Example 13, (R)—N2-(4-cyclopropyl-5-fluoro-6-methylpyridin-2-yl)-N4-(1,5-dimethyl-1H-pyrazol-3-yl)-5-(3,4-dimethylpiperazin-1-yl)pyrimidine-2,4-diamine] |  | < 4.25 | 19.5 | > 30 | 11.3 | < 4.52 | 0.04 | 9.3 | 1.35 | 20.80
